# Where two headings read alike, the source gives them in different places.
# Experiments:
# TrkA kinase = TrkA kinase (Homo sapiens, UniProt P04629); test: TrkA kinase assay (mobility shift assay); format: biochemical; settings: read-out: Trk A Kinase IC50
# Method in brief: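 Ten-point compound series was preincubated 10 min at room temperature with TrkA, then FAM-peptide plus ATP added in HEPES pH 7.5/Brij-35 buffer and reacted at 28 °C before EDTA quench.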
# Ba/F3-TPM3-NTRK1 = target: T1, Ba/F3-TPM3-NTRK1 (Homo sapiens, UniProt P04629); test: Ba/F3-TPM3-NTRK1 cells proliferation assay; format: cell-based; settings: 72 h, CellTiter Glo
# T1 construct: expressed in transfected cells; host or cells: Ba/F3; the other entry of the earlier key: TPM3 (P06753, Tropomyosin alpha-3 chain)
# Procedure: Example 202 Ba/F3-TPM3-NTRK1 and Ba/F3-ETV6-NTRK3 cells proliferation assay
# Cell line: Ba/F3 cells with TPM3-NTRK1 or ETV6-NTRK3 fusion mutation gene stably overexpressed named Ba/F3-TPM3-NTRK1 and Ba/F3-ETV6-NTRK3.
# RPMI 1640 and 10% FBS and 1% PS and 2 ug/mL puromycin.
# b) Collect cell to a 15 mL centrifuged tube, centrifuge at 1000 rpm for 5 min. Discard the supernatant, count, and make the cell density at 1.49×10^4 cells/mL, then place it in a 37° C., 5% CO2 incubator.
# a) The test compound (20 mM stock solution) was diluted to 60 μM with 100% DMSO as starting concentration then 3-fold serial diluted with “9+0” concentrations. in a 96-well dilution plate (Thermo, Cat. No. 249944);
# b) The above compound solution was diluted 1:20 times with culture medium to prepare a 10 fold working solution;
# a) Take cells in log phase growth, centrifuge at 1000 rpm for 5 min, then resuspend the cells with culture medium, then count cells;
# b) Cells were seeded to 96-well cell culture plate with density at 2000 cells/well;
# a) Compounds prepared at step 2 were added to cell plate with 15 μL per well, the final concentrations were 300, 100, 33.33, 11.11, 3.70, 1.23, 0.41, 0.14, 0.05 and 0 nM, and the final concentration of DMSO was 0.5%. The blank control well was a culture medium (0.5% DMSO);
# c) The cells were incubated for an additional 72 h in the incubator.
# a) Remove the 96-well cell culture plate and add 50 μl of CTG reagent (CellTiter Glo kit, promega, Cat #G7573).
# b) Plate was shaked for 2 min and then let it cool for 30 min at room temperature.
# c) The Luminescence signal value was read using a PerkinElmer reader.
# Experimental Data Analysis
# Data were analyzed using GraphPad Prism 6.0 software to obtain a fitted curve of compound activity.
# Fit the Compound IC50 from non-linear regression equation:
# Y=Bottom+(Top-Bottom)/(1+10^((Log IC50-X)×HillSlope));
# X: The log of the concentration of the compound; Y: Luminescence value.
# NTRK1-G595R = NTRK1-G595R (Homo sapiens, UniProt P04629, G595R); test: NTRK1-G595R cell proliferation assay (Table 13); format: cell-based
# [1] = Liver microsomes metabolic stability assay, human; format: in vitro ADME; settings: human liver microsomes 0.5 mg/mL, 37° C.; for half-life at 2 μM: read-out: t1/2 Human
# Method in brief: (§1)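 Pooled human, male rat or male mouse liver microsomes (0.5 mg/mL final) incubated at 37° C with 2 μM compound, with or without 1 mM NADPH. Samples at 0-60 min quenched in cold acetonitrile and analyzed by LC-MS/MS in duplicate. t1/2 derived from ln(% remaining) vs time slope, converted to CLint (μL/min/mg).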
# [2] = Liver microsomes metabolic stability assay, rat; format: in vitro ADME; settings: male, rat liver microsomes 0.5 mg/mL, 37° C.; for half-life at 2 μM: read-out: t1/2 Rat
# Method in brief: as §1
# [3] = Liver microsomes metabolic stability assay, mouse; format: in vitro ADME; settings: male, mouse liver microsomes 0.5 mg/mL, 37° C.; for half-life at 2 μM: read-out: t1/2 Mouse
# Method in brief: as §1
# [4] = Plasma protein binding (equilibrium dialysis), human; format: in vitro ADME; settings: pH 7.4, human plasma, 1 μM, 6 hours dialysis; for fraction unbound at 6 h, 1 μM: read-out: Mean % Bound Human (converted)
# Procedure: (§2) Example 204 Plasma Protein Binding Measurements
# (§3) The plasma protein binding was measured as the following procedure.
# (§4) 1) Preparation of 100 mM sodium phosphate and 150 mM NaCl buffer (PBS)
# (§5) A basic solution was prepared by dissolving 14.2 g/L Na2HPO4 and 8.77 g/L NaCl in deionized water and the solution could be stored at 4° C. for up to 7 days. An acidic solution was prepared by dissolving 12.0 g/L NaH2PO4 and 8.77 g/L NaCl in deionized water and the solution could be stored at 4° C. for up to 7 days. The basic solution was titrated with the acidic solution to pH 7.4 and store at 4° C. for up to 7 days. pH was checked on the day of experiment and was adjusted if outside specification of 7.4±0.1.
# (§6) Frozen plasma was thawed immediately at room temperature.
# (§7) The plasma was centrifuged at 3,220 g for 10 minutes to remove clots and supernatant was collected into a fresh tube. The pH of the plasma was checked and recorded.
# (§8) Note: a). Only use plasma that has been thawed no more than twice since arrival. b). Only use plasma within the range of pH 7 to pH 8.
# (§9) 3) Preparation of working solutions
# (§10) The working solutions of test compounds and control compound ketoconazole were prepared in DMSO at the concentration of 200 μM. And then 3 μL of working solution was removed to mix with 597 μL of human, rat or mouse plasma to achieve a final concentration of 1 μM (0.5% DMSO). Plasma samples were vortexed thoroughly.
# (§11) 4) Preparation of dialysis membranes
# (§12) The dialysis membranes were soaked in ultrapure water for 60 minutes to separate strips, then in 20% ethanol for 20 minutes, finally in dialysis buffer for 20 minutes.
# (§13) 5) Procedure for equilibrium dialysis
# (§14) The dialysis apparatus was assembled according to the manufacturer's instruction. Each cell was filled with 120 μL of plasma sample and dialyzed against equal volume of dialysis buffer (PBS). The assay was performed in duplicate. The dialysis plate was sealed and incubated in an incubator at 37° C. with 5% CO2 at 100 rpm for 6 hours. At the end of incubation, seal was removed and 50 μL of samples from both buffer and plasma chambers were transferred to wells of a 96-well plate.
# (§15) 6) Procedure for sample analysis
# (§16) 50 μL of blank plasma was added to each buffer samples and an equal volume of PBS was supplemented to the collected plasma sample. 300 μL of room temperature quench solution (acetonitrile containing internal standards (1S, 100 nM Alprazolam, 500 nM Labetalol and 2 μM Ketoprofen)) was added to precipitate protein. Samples in plate were vortexed for 5 minutes and centrifuged at 3,220 g for 30 minutes at 4° C. And then 100 μL of the supernatant was transferred to a new 96-well plate with 100 μL or 200 μL water (depends on the LC-MS signal response and peak shape) for LC-MS/MS analysis.
# (§17) Calculate the percentages of test compound and control compound bound as follows:
# (§18) % Free=(Peak Area Ratiobuffer chamber/Peak Area Ratioplasma chamber)*100
# (§19) % Recovery=(Peak Area Ratiobuffer chamber+Peak Area Ratioplasma chamber)/Peak Area Ratio total sample*100
# (§20) Peak Area Ratiobuffer chamber means the conc for free fraction
# (§21) Peak Area Ratioplasma chamber means the conc for both free and bound fraction
# (§22) Peak Area Ratiototal sample means the conc for starting sample before incubation
# [5] = Plasma protein binding (equilibrium dialysis), rat; format: in vitro ADME; settings: pH 7.4, 6 hours dialysis; for fraction unbound at 6 h, 1 μM: read-out: Mean % Bound Rat (converted)
# Procedure: as §2, §3, §4, §5, §6, §7, §8, §9, §10, §11, §12, §13, §14, §15, §16, §17, §18, §19, §20, §21, §22
# [6] = Plasma protein binding (equilibrium dialysis), mouse; format: in vitro ADME; settings: pH 7.4, 6 hours dialysis; for fraction unbound at 6 h, 1 μM: read-out: Mean % Bound Mouse (converted)
# Procedure: as §2, §3, §4, §5, §6, §7, §8, §9, §10, §11, §12, §13, §14, §15, §16, §17, §18, §19, §20, §21, §22
# Chain of TrkA kinase (P04629 33-796): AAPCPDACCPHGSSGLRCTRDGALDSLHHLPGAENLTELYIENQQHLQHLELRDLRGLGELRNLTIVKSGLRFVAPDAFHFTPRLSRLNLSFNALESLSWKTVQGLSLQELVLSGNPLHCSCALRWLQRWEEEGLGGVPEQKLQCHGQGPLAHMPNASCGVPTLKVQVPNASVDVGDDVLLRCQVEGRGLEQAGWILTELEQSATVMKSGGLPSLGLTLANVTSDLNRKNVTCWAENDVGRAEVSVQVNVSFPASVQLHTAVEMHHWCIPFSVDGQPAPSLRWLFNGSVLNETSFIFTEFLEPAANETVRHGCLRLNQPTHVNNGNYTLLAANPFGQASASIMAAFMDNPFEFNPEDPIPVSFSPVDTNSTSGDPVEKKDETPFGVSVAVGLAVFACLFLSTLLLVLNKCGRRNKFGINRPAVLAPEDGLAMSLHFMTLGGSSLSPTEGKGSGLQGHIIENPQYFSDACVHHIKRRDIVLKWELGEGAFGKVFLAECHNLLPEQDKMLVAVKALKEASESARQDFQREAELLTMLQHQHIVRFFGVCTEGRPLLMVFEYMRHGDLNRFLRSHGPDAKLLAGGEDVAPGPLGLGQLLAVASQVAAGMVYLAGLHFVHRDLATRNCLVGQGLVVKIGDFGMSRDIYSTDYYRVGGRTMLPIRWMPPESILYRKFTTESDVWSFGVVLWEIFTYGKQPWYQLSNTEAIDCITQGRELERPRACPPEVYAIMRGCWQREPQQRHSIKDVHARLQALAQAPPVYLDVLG
# T1 sequence (P04629 510-796 limits assumed): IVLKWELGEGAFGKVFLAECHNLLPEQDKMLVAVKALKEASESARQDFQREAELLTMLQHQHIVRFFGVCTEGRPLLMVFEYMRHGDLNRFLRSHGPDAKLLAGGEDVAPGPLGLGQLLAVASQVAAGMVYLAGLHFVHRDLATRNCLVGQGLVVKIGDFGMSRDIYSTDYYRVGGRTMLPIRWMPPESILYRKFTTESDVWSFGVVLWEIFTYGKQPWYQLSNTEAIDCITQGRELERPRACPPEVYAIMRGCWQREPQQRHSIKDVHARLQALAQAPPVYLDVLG
# Chain of NTRK1-G595R (P04629 33-796 G595R): as the sequence (P04629 33-796) above, with G563R counted along it
IC50 (TrkA kinase; numeric values),IC50 (Ba/F3-TPM3-NTRK1),IC50 (NTRK1-G595R),microsomal CLint at 2 μM [1],half-life at 2 μM [1],microsomal CLint at 2 μM [2],half-life at 2 μM [2],microsomal CLint at 2 μM [3],half-life at 2 μM [3],"recovery at 6 h, 1 μM [4]","fraction unbound at 6 h, 1 μM [4]","recovery at 6 h, 1 μM [5]","fraction unbound at 6 h, 1 μM [5]","recovery at 6 h, 1 μM [6]","fraction unbound at 6 h, 1 μM [6]",IC50 (TrkA kinase; class symbols),SMILES
0.79 nM,1.38 nM,62.9 nM,,,,,,,,,,,,,,"OCc1cc2nc(-c3cnn4ccc(N5CCC[C@@H]5c5cc(F)ccc5F)nc34)oc2cc1F [Compound 94, (R)-(2-(5-(2-(2,5-difluorophenyl)pyrrolidin-1-yl)pyrazolo[1,5-a]pyrimidin-3-yl)-6-fluorobenzo[d]oxazol-5-yl)methanol]"
0.4 nM,0.28 nM,165 nM,49.4 µL/min/mg,28.1 min,105 µL/min/mg,13.2 min,103 µL/min/mg,13.5 min,,,,,,,,"COCCOc1cc2nc(-c3cnn4ccc(N5CCC[C@@H]5c5cc(F)ccc5F)nc34)[nH]c2cc1OCCOC [Compound 101, (R)-3-(5,6-bis(2-methoxyethoxy)-1H-benzo[d]imidazol-2-yl)-5-(2-(2,5-difluorophenyl)pyrrolidin-1-yl)pyrazolo[1,5-a]pyrimidine]"
0.71 nM,3.33 nM,,,,,,,,91.7%,0.0868,92.4%,0.109,98.6%,0.0918,,"C[C@@H](O)c1nnc(-c2cnn3ccc(N4CCC[C@@H]4c4cc(F)ccc4F)nc23)[nH]1 [Compound 34, (R)-1-(5-(5-((R)-2-(2,5-difluorophenyl)pyrrolidin-1-yl)pyrazolo[1,5-a]pyrimidin-3-yl)-4H-1,2,4-triazol-3-yl)ethan-1-ol]"
,2.91 nM,103 nM,55.8 µL/min/mg,24.8 min,78.4 µL/min/mg,17.7 min,102 µL/min/mg,13.5 min,,,,,,,≤ 10 nM,"COCCOc1cc2[nH]c(-c3cnn4ccc(N5CCC[C@@H]5c5cc(F)ccc5F)nc34)nc2cc1C#N [Compound 169, (R)-2-(5-(2-(2,5-difluorophenyl)pyrrolidin-1-yl)pyrazolo[1,5-a]pyrimidin-3-yl)-6-(2-methoxyethoxy)-1H-benzo[d]imidazole-5-carbonitrile]"
,1.9 nM,117 nM,94.1 µL/min/mg,14.7 min,60.8 µL/min/mg,22.8 min,39 µL/min/mg,35.5 min,,,,,,,≤ 10 nM,"N#Cc1cc2[nH]c(-c3cnn4ccc(N5CCC[C@@H]5c5cc(F)ccc5F)nc34)nc2cc1F [Compound 123, (R)-2-(5-(2-(2,5-difluorophenyl)pyrrolidin-1-yl)pyrazolo[1,5-a]pyrimidin-3-yl)-5-fluoro-1H-benzo[d]imidazole-6-carbonitrile]"
,1.04 nM,106 nM,42.2 µL/min/mg,32.8 min,21 µL/min/mg,66 min,33.4 µL/min/mg,41.5 min,,,,,,,≤ 10 nM,"CSc1cc2nc(-c3cnn4ccc(N5CCC[C@@H]5c5cc(F)ccc5F)nc34)[nH]c2cc1C#N [Compound 126, (R)-2-(5-(2-(2,5-difluorophenyl)pyrrolidin-1-yl)pyrazolo[1,5-a]pyrimidin-3-yl)-5-(methylthio)-1H-benzo[d]imidazole-6-carbonitrile]"
11.8 nM,,,,,,,,,85.9%,0.126,82.5%,0.164,86.5%,0.0817,,"NC1(c2nnc(-c3cnn4ccc(N5CCC[C@@H]5c5cc(F)ccc5F)nc34)[nH]2)CCC1 [Compound 24, (R)-1-(5-(5-(2-(2,5-difluorophenyl)pyrrolidin-1-yl)pyrazolo[1,5-a]pyrimidin-3-yl)-4H-1,2,4-triazol-3-yl)cyclobutan-1-amine]"
1.1 nM,3.39 nM,221 nM,,,,,,,,,,,,,,"CN(C)c1cc2[nH]c(-c3cnn4ccc(N5CCC[C@@H]5c5cc(F)ccc5F)nc34)nc2cc1C#N [Compound 144, (R)-2-(5-(2-(2,5-difluorophenyl)pyrrolidin-1-yl)pyrazolo[1,5-a]pyrimidin-3-yl)-6-(dimethylamino)-1H-benzo[d]imidazole-5-carbonitrile]"
0.6 nM,1.33 nM,119 nM,,,,,,,,,,,,,,"Fc1ccc(F)c([C@H]2CCCN2c2ccn3ncc(-c4nc5cc(CN6CCOCC6)ccc5[nH]4)c3n2)c1 [Compound 162, (R)-4-((2-(5-(2-(2,5-difluorophenyl)pyrrolidin-1-yl)pyrazolo[1,5-a]pyrimidin-3-yl)-1H-benzo[d]imidazol-5-yl)methyl)morpholine]"

# Source: patent publication US20210395256A1, “TYROSINE KINASE INHIBITORS, COMPOSITIONS AND METHODS THERE OF” (Betta Pharmaceuticals Co., Ltd., priority 2018, published 2021)
